The conditions of data set [1]: cited from earlier work.
A short description of data set [2]: Andersen Cascade Impactor (ACI) with USP throat, aerodynamic particle size distribution, pMDI alone vs pMDI with chamber, continuous flow 28.3 L/min. The data set is classed as physicochemical. The conditions noted are these: for reduction in FPD (μg) as compared to the pMDI alone: pMDI with OPTICHAMBER
The method, then: Pressurized MDI products were tested alone and as an inhalation system/drug product which included a pMDI in combination with one chamber such as the A[…]-STAT Plus™ (volume=148 mL), A[…]® (volume=[…]), VORTEX® AND OPTICHAMBER®.
An Andersen Cascade Impactor (ACI) with USP throat was used to measure aerodynamic particle size distribution. Two impactor configurations were used for the two flow rates. Plates 0 through 7 were used for sampling at 28.3 L/min; plates—1 through 6 were used for sampling at 60 L/min. The effective cut off diameters for the plates in each configuration were provided by the manufacturer. Total delivered dose values report the total mass of active ingredient recovered from the impactor (throat, plates and filter). Fine particle dose values report the total mass of active ingredient with aerodynamic diameter less than 4.7 μm.
FIGS. 1 and 2 show throat, fine particle dose and total delivered dose recoveries for both active ingredients, as measured by ACI under continuous flow at 28.3 L/min. Recoveries are shown for different spacer devices and the pMDI, as indicated in the legends. Data points represent mean values (n=5); error bars indicate one standard deviation.

The conditions of data set [3]: cited from earlier work. This is another data set of the same source.
[4] abbreviates: pMDI with AEROCHAMBER Z-STAT PLUS.

Turning to `COc1ccc(CC(C)NCC(O)c2ccc(O)c(NC=O)c2)cc1.O.O.O=C(O)/C=C/C(=O)O` (racemic) [formoterol fumarate, (±)2-hydroxy-5-[(1RS)-1-hydroxy-2-[[(1RS)-2-(4-methoxyphenyl)-1methylethyl]-amino]ethyl] formanilide fumarate dihydrate], in data set [1], the solubility in acetone result is “practically insoluble”, the solubility in ethanol result is “sparingly soluble”, the solubility in isopropanol entry is given as “sparingly soluble” and the solubility in methanol entry was “soluble”. Also, the solubility in water entry in data set [1] is reported as “slightly soluble”. In data set [1] (diethyl ether), the “solubility in diethyl ether” value is listed as “practically insoluble”. For the same compound, in data set [1] (ethyl acetate), the “solubility in ethyl acetate” value is recorded as “practically insoluble”. Moreover, in data set [1] (glacial acetic acid), the “solubility in glacial acetic acid” value is reported as “freely soluble”. For the same compound, the “difference in fine particle dose (FPD, <4.7 μm) vs pMDI alone” value (“difference in fine particle dose” for short) in data set [2] (pMDI with AEROCHAMBER MAX) is no more than 15%. The “difference in fine particle dose” value in data set [2] (setting [4]) is “less than 5%”. In addition, in data set [2], the “reduction in FPD (μg) as compared to the pMDI alone” value is given as “about 30%”. In data set [2] (pMDI with VORTEX), the “difference in fine particle dose” value was no more than 20%.
On to `C[C@@H]1C[C@H]2[C@@H]3CCC4=CC(=O)C=C[C@]4(C)[C@@]3(Cl)[C@@H](O)C[C@]2(C)[C@@]1(OC(=O)c1ccco1)C(=O)CCl` [mometasone furoate, 9,21-Dichloro-11(beta), 17-dihydroxy-16(alpha)-methylpregna-1,4-diene-3,20-dione 17-(2 furoate)], for which, in data set [1], the solubility in acetone result was “soluble”, the solubility in ethanol result is reported as “slightly soluble”, the solubility in isopropanol entry was “slightly soluble” and the solubility in methanol result was “slightly soluble”. The solubility in water entry in data set [1] was “practically insoluble”. In addition, in data set [1] (chloroform), the solubility in chloroform entry was “soluble”. For the same compound, the solubility in tetrahydrofuran entry in data set [1] (tetrahydrofuran) is given as “freely soluble”. The “difference in fine particle dose” value in data set [2] (pMDI with AEROCHAMBER MAX) is no more than 15%. In addition, the “difference in fine particle dose” value in data set [2] (setting [4]) is given as “less than 5%”. Further, the “reduction in FPD (μg) as compared to the pMDI alone” value in data set [2] is “about 30%”. The “difference in fine particle dose” value in data set [2] (pMDI with VORTEX) is given as no more than 20%. Moreover, the “reduction of deposition in the throat portion of the ACI” value in data set [2] (use of several of the chambers vs pMDI alone) is reported as “about 90%”. Moreover, in data set [3], the “partition coefficient between octanol and water” value is “greater than 5000”.
